Reference: patent publication US11974990B2, “TXNIP-TRX complex inhibitors and methods of using the same” (City of Hope, priority 2018, dated 2024)
“Also recorded” adds a separate entry of the source.

Legend:
[1] = system: TNF-α mRNA; experiment: TNF-α mRNA expression (RT-PCR) in murine MIN6 pancreatic beta cells; format: cell-based; settings: 25 mM glucose, 72 h (FIG. 11 right)
Protocol: FIG. 11. […] MIN6 cells were cultured in 25 mM glucose with C1 at uM concentrations for 72 h. Total RNA was prepared. RT-PCR was performed. Data shown are the mean+SEM from triplicates. Statistical analysis was performed for each column vs. HG DMSO using one-way ANOVA: *<0.0001.
RNA extraction and quantitative RT-PCR. RNA was extracted using the Direct-zol™ RNA MiniPrep Plus (Zymo Research). Reverse transcription of RNA samples into cDNA was performed using the GeneAmp RNA PCR Kit (Applied Biosystems), dNTP (from Roche Applied Science), Rnase inhibitor, MULV Reverse Transcriptase and Random hexamers reagent (all from Invitrogen). Diluted cDNA was quantified using real-time PCR performed with Power SYBR Green qPCR MasterMix (Applied Biosystem) and 7500 real-time PCR system (Applied Biosystems). The HPRT1 gene was used as an internal control.

[2] = system: TXNIP mRNA; experiment: TXNIP mRNA expression (RT-PCR) in THP1 cells under 25 mM glucose; format: cell-based, human; settings: THP1, 25 mM glucose, concentration range of C1, 72 h (FIG. 9A)
Protocol: (§1) FIGS. 9A-9B. FIG. 9A. […] THP1 cells were cultured in 25 mM glucose with the indicated concentrations of C1 for 72 h. Cell were collected for total RNA preparation. RT-PCR were performed and data shown are the mean+SEM from triplicates. Statistical analysis was performed using one-way ANOVA, *<0.0001. FIG. 9B. […] THP1 cells were cultured in 25 mM glucose and C1 (uM) as indicated for 72 hours and collected for total RNA preparation. RT-PCR was performed. Data shown are the mean+SEM from triplicates. Statistical analysis was performed using one-way ANOVA: *<0.02; **<0.0001.
FIG. 13. C1 analogs affects TXNIP mRNA expression in THP1 cells. THP1 cells were cultured in 25 mM glucose with 5 uM of compounds for 72 h. Total RNA was collected and RT-PCR was performed in triplicate and data shown are the mean+SEM. Statistical analysis was performed using one-way ANOVA: *<0.0001.
(§2) RNA extraction and quantitative RT-PCR. RNA was extracted using the Direct-zol™ RNA MiniPrep Plus (Zymo Research). […] Diluted cDNA was quantified using real-time PCR performed with Power SYBR Green qPCR MasterMix (Applied Biosystem) and 7500 real-time PCR system (Applied Biosystems). […]
(§3) RNA extraction and quantitative RT-PCR. […] Diluted cDNA was quantified using real-time PCR performed with Power SYBR Green qPCR MasterMix (Applied Biosystem) and 7500 real-time PCR system (Applied Biosystems). […]

[3] = system: TNF-α mRNA; experiment: TNF-α mRNA expression (RT-PCR) in THP1 cells under high glucose; format: cell-based, human
Protocol: FIG. 8. […] High glucose induced TNF expression in THP1 cells. This HG induced TNF increase is alleviated by C1 in dose manner (1.25, 2.5 and 5 uM). Results shown are means±SE of triplet real-time PCRs. *:P=0.002 vs. HG only, by t tests; **:P=0.001 vs. HG only, by t tests.
as §1, §2, §3

Structure (SMILES): CC(C)C(C(=O)O)N1C(=O)c2ccncc2C1=O (stereo not shown) [Compound C1, 2-(1,3-dioxo-1,3-dihydro-2H-pyrrolo[3,4-c]pyridin-2-yl)-3-methylbutanoic acid]
- TNF-α mRNA levels [1]: did not decrease TNF-α levels
- TXNIP mRNA expression [2]: inhibits TXNIP mRNA expression; also recorded: attenuate high glucose induced expression of inflammatory cytokine molecules and TXNIP in monocytes; also recorded: inhibit TXNIP expression in a dose-dependent manner
- TNF-α mRNA expression ([3]; THP1, 25 mM glucose, concentration range of C1, 72 h (FIG. 9B)): inhibits TNF-α mRNA expression; also recorded: lower levels of TNF-α mRNA
- HG-induced TNF expression ([3]; THP1, high glucose, C1 1.25, 2.5 and 5 uM (FIG. 8)): attenuate high glucose induced expression of inflammatory cytokine molecules
